Reference: patent US20220326218A1, “COMPOSITION AND METHOD FOR INHIBITING BORC COMPLEX TO TREAT CANCERS WITH NF1 DEFICIENCY AND DYSREGULATED RAS SIGNALING” (THE TRUSTEES OF DARTMOUTH COLLEGE, priority 2019, published 2022)

What was measured:
Type in all cases: cell-based, human
U87-MG cells = experiment: Hoechst cell death viability assay, U87-MG
Method: Cells were plated at 2,500 cells/well in 96-well plates and allowed to adhere overnight. Medium was removed and replaced with media containing compound starting at 100 μM, followed by 2-fold serial dilutions to generate a 10-point range of concentrations normalized with DMSO; one row was treated with DMSO as a control. Cells were incubated for the indicated timepoints. Upon collection, media was removed, cells were rinsed with PBS, and stored at −80° C. until all plates were collected. To process cells, plates were thawed with PBS, incubated with 1× saline-sodium citrate (SSC) buffer with 0.02% sodium dodecyl sulfate (SDS) for 1 hour at 37° C., followed by staining with 1 μg/mL Hoechst 33258 (Pierce). […] using a Spectramax M2 at an excitation of 355 nm and an emission of 460 nm, and absorbance was normalized to DMSO. Each experiment was repeated 2-3 times with 4 technical replicates per experiment.

sequestosome-1 (p62) = experiment: Immunofluorescence staining for p62; details: U87-MG, 24 h; 2 μM Y102, 50 μM HCQ; HCQ and Y102 compared with each other
Method: (§1) U87-MG cells were plated at a concentration of 50,000 cells/well onto precoated poly-D-lysine (PDL) coverslips (Neuvitro) in 24-well plates (Falcon) and allowed to adhere overnight. Medium was removed and replaced with treatment-laced media normalized to DMSO, and cells were treated for the indicated timepoints. At the time of collection, cells were washed with PBS and fixed with 4% paraformaldehyde without methanol (EMS) or 100% methanol (Fischer). Coverslips were washed with Tween20-containing PBS (PBST; Fischer). Following permeabilization with 0.5% Triton X-100 in PBS (Fischer), coverslips were blocked for 1 h at room temperature in IF Buffer (0.05% azide, 0.2% Triton X-100, 2% Normal Goat Serum or, for 8-OHG, Normal Donkey Serum). The following primary antibodies were used for 1 hour at room temperature unless specified: AlexaFluor 488 pre-conjugated anti-γ-H2AX (N1-431) mouse monoclonal (30 minutes; BD Biosciences), anti-cleaved caspase 3 (Asp175) rabbit polyclonal (Cell Signaling), anti-SQSTM1/p62 (D-3) mouse monoclonal (Santa Cruz), anti-8-Hydroxyguanosine goat polyclonal (1:200; Millipore), anti-LAMP1 (D4O1S) mouse monoclonal (O/N at 4° C.; Cell Signaling), anti-BNIP3L/Nix (D4R4B) rabbit monoclonal (O/N at 4° C.; Cell Signaling), anti-FLAG (M2) mouse monoclonal (2 hours at 37° C.; Sigma-Aldrich). […]

[1] = tested on: 8-hydroxyguanosine (8-OHG); experiment: Immunofluorescence staining for oxidative stress marker 8-OHG; details: U87-MG, 2 μM, 24 h
Method: as §1

BNIP3L/Nix = experiment: Western immunoblotting of BNIP3L/Nix; details: U87-MG, 2 μM, 24 h, 20 μM QVD pre-treatment
Method: U87-MG cells were plated at 500,000 cells/well in 6-well plates and allowed to adhere overnight (Falcon). Medium was removed and replaced with fresh medium containing drugs or compounds for the indicated timepoints. Cells were collected after treatment by washing with PBS, harvested with trypsin plus agitation to detach cells, pelleted in a centrifuge and resuspended in PBS to wash. Cells were transferred to 1.5 mL microcentrifuge tubes, pelleted, and resuspended in RIPA lysis buffer (50 mM Tris pH 8.0, 150 mM NaCl, 1% nonidet P40, 0.5% sodium deoxycholate, and 0.05% SDS) containing 1 mM NaVO4, 1 mM NaF, 1 mM phenylmethylsulfonyl fluoride, 0.1 μg/mL antipain, 1 μM aprotinin, 100 μM benzamidine HCl, 0.1 μg/mL leupeptin, 0.1 μg/mL pepstatin, and 0.1 μg/mL soybean trypsin inhibitor. Protein was quantified using a BCA assay kit (Pierce). 50 μg of protein was prepared in 1× Laemmli sample buffer (50 mM Tris pH 6.8, 0.02% w/v bromophenol blue, 2% w/v SDS, 10% v/v glycerol, 1% v/v beta-mercaptoethanol, 12.5 mM EDTA) and separated by SDS-PAGE on a 4-15% polyacrylamide gradient gel (Bio-Rad). […]

Cn1cnnc1S/C=C/C(=O)c1ccc(F)cc1 [Y102]
growth inhibition, acute treatment of 2 hours compared to continuous treatment for 72 hours (U87-MG cells): same degree of growth inhibition | reversibility of effects after a 2 hour treatment (U87-MG cells): irreversible | concentration from which cell proliferation was inhibited (U87-MG cells; continuous treatment, seven days, normalized to day zero plating): ≥ 3.125 µM | sensitivity of NF1-deficient cell line to treatment (U87-MG cells; up to 7 days, 100 μM to 0.039 μM, Hoechst 33258): sensitive | p62 expression compared to DMSO (immunofluorescence) (sequestosome-1 (p62)): increased | 8-OHG compared to DMSO [1]: increase | localization of 8-OHG oxidative stress-induced damage [1]: both nuclear and mitochondrial DNA | BNIP3L/Nix protein levels versus DMSO (BNIP3L/Nix): little difference
